Target: human adenosine A3 receptor (Homo sapiens (Human), UniProt P0DMS8)
Assay: Intracellular cAMP levels (inhibition of forskolin-stimulated cAMP production)
Format: cell-based
Conditions: for EC50: CHO cells expressing human adenosine A3 receptors, forskolin 10 μM; for CAMP Efficacy (%): maximal response as percentage of the response produced by 100 nM IB-MECA
In short: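 CHO-K1 cells stably expressing human A3 receptor were exposed to compound (0.1 nM–1 μM) for 5 min at 37 °C, then 10 μM forskolin for 10 min. cAMP measured by competitive enzyme immunoassay (OD 450 nm); EC50 from Hill fit of inhibition, maximum relative to 100 nM IB-MECA.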

Chain of human adenosine A3 receptor (P0DMS8 whole entry): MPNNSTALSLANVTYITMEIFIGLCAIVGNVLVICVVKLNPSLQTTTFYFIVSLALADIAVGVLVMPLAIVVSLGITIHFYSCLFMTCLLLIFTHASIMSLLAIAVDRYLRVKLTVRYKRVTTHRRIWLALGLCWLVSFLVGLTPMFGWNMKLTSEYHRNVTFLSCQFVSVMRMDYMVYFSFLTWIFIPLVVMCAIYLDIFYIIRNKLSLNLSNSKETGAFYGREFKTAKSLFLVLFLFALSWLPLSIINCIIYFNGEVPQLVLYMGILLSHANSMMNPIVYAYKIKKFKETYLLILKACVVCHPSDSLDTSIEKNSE

SMILES: CCNc1cc(C#CC2CC2)nc2c1ncn2[C@H]1[C@H](O)[C@H](O)[C@@H]2C[C@@H]21 [Compound 46, (1R,2R,3S,4R,5S)-4-(5-(cyclopropylethynyl)-7-(ethylamino)-3H-imidazo[4,5-b]pyridin-3-yl)bicyclo[3.1.0]hexane-2,3-diol]
- EC50: > 10000 nM
- CAMP Efficacy (%): 1%

SMILES: O[C@@H]1[C@H](O)[C@@H]2C[C@@H]2[C@H]1n1cnc2c(NCC(F)F)nc(Cl)nc21 [Compound 35, (1R,2R,3S,4R,5S)-4-(2-chloro-6-((2,2-difluoroethyl)amino)-9H-purin-9-yl)bicyclo[3.1.0]hexane-2,3-diol]
- EC50: 1.33 nM
- CAMP Efficacy (%): 80.97%

SMILES: Cc1c(Cl)nc2c(ncn2[C@H]2[C@H](O)[C@H](O)[C@@H]3C[C@@H]32)c1NCC(F)F [Compound 60, (1R,2R,3S,4R,5S)-4-(5-chloro-7-((2,2-difluoroethyl)amino)-6-methyl-3H-imidazo[4,5-b]pyridin-3-yl)bicyclo[3.1.0]hexane-2,3-diol]
- EC50: > 10000 nM
- CAMP Efficacy (%): 1%

SMILES: O[C@@H]1[C@H](O)[C@@H]2C[C@@H]2[C@H]1n1cnc2c(NCC(F)F)cc(Cl)nc21 [Compound 40, (1R,2R,3S,4R,5S)-4-(5-chloro-7-((2,2-difluoroethyl)amino)-3H-imidazo[4,5-b]pyridin-3-yl)bicyclo[3.1.0]hexane-2,3-diol]
- EC50: 8.6 nM
- CAMP Efficacy (%): 77.6%

— patent US20230416245A1, “ADENOSINE ANALOGS FOR THE TREATMENT OF DISEASE” (BIOINTERVENE, INC., priority 2020, published 2023)
